Reference: PubChem BioAssay (NCI)
Where “and” joins values, the source holds several entries; their conditions need not be identical. Equal entries are not always repeated.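 Assay format: 96-well plates, 48-hour exposure. GI50: concentration for 50% inhibition of growth. TGI denotes the concentration required for complete inhibition of growth.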 Where a SMILES comes first, the peptide text is derived from it. [ ]: non-standard residue; d: D form. The star is where a group is joined. ξ: configuration not given here. X6 = FC(F)(F)c1cc(NC(=S)*)cc(C(F)(F)F)c1; ξF = NC(Cc1ccccc1)C(=O)O

System: MDA-MB-468 breast
Assay: inhibition of tumour cell growth, NCI panel, 48 h

SMILES | GI50 | TGI
COc1ccc2[nH]cc(-c3csc4nc(-c5ccccc5)cn34)c2c1 | 362 nM | 2070 nM
Clc1ccc2c(NCCCCNc3nc(N4CCCCC4)nc4ccccc34)ccnc2c1 | 1640 nM | 3630 nM
Cn1cc(C2=C(c3cn(C)c4ncccc34)C(=O)NC2=O)c2ccccc21 | 5470 nM | > 25000 nM
CCCCCN(CCCCC)CCCNc1c2c(nc3ccc(Cl)cc13)CCCC2 | 2440 nM | 6310 nM
NC(=O)c1sc(-n2cnc3ccccc32)cc1OCc1ccccc1Br | 340 nM | 2180 nM
O=C1CC(c2ccc3c(c2)OCO3)Nc2ccccc21 (stereo not given) | 4220 nM | 23900 nM
C#Cc1ccc(-n2c(/C=C/c3ccc(C(F)(F)F)cc3)nc3ncccc3c2=O)cc1 | 1510 nM | 3630 nM
Nc1nc(-c2cccc([N+](=O)[O-])c2)c(N=Nc2cccc([N+](=O)[O-])c2)s1 | 30500 nM | > 100000 nM
O=C(Nc1ccc(Cl)c(Cl)c1)Nc1ccc(Cl)c(Cl)c1 | 1840 nM and 2210 nM | 6690 nM and 6100 nM
COC1=CC(c2ccc[nH]2)=N/C1=C\c1[nH]c(C)c(C(=O)OC(C)C)c1C | 111 nM | 1390 nM
CCCCCN(CCCCC)CC(O)c1cc(C)c2ccc3cc(C(C)C)ccc3c2c1 (stereo not given) | 1740 nM | 3290 nM
COc1ccc2c(C3=C(c4cn(C)c5ccccc45)C(=O)NC3=O)cn(C)c2c1 | 112 nM | 10200 nM
NC(=O)c1cccc2cn(-c3ccc([C@@H]4CCCNC4)cc3)nc12 | 6090 nM | 18900 nM
Cc1nc2ccccc2c(N)c1-c1cc(C)c2c(C)nc3ccccc3c2n1 | 1640 nM | 3730 nM
O=C(/C=C/C12c3ccccc3C(c3ccccc31)C1C(=O)NC(=O)C12)c1ccncc1 (stereo not given) | 1820 nM | 4020 nM
CO[C@H](C(=O)[C@@H](O)[C@@H](C)O)[C@@H]1Cc2cc3cc(O[C@H]4C[C@@H](O[C@H]5C[C@@H](O)[C@H](O)C(C)O5)[C@H](O)C(C)O4)c(C)c(O)c3c(O)c2C(=O)[C@H]1O[C@H]1C[C@@H](O[C@H]2C[C@@H](O[C@H]3C[C@](C)(O)C(=O)C(C)O3)[C@@H](O)C(C)O2)[C@H](O)C(C)O1 (stereo not given in full) | 68.4 nM | 515 nM
CC/C=C\CCC/C=C1/C(=O)C=C[C@@H]1C/C=C\CCCC(=O)OC | 3200 nM | 10100 nM
CC(C)CCC[C@@H](C)[C@H]1CC[C@H]2[C@@H]3CC=C4C[C@@H](C(C(=O)O)C(=O)O)CC[C@]4(C)[C@H]3CC[C@]12C | 337 nM | 892 nM
COC(=O)[C@@H](NC(=O)CNC(=O)[C@H]1CCCN1C(=O)C(Cc1ccccc1)NC(=S)Nc1cc(C(F)(F)F)cc(C(F)(F)F)c1)C(C)C (stereo not given in full) (X6-[ξF][dP]GV-OMe) | 1500 nM | 3230 nM
Cc1ccc(C(=O)/C(=C/c2ccc([N+](=O)[O-])cc2)SCc2ccc(Cl)cc2)cc1 | 2760 nM | 7460 nM
CCC(CO)Nc1nc2ccc(Cl)cc2c2ccccc12 (stereo not given) | 5280 nM | 19500 nM
OCc1ccc(N2CCC2c2ccc(F)cc2)cc1Cl (stereo not given) | 30.4 nM | 251 nM
COc1cc(-c2nn(-c3ccc(NC(=O)c4ccc(Cl)c(C(F)(F)F)c4)cc3)cc2-c2ccncc2)ccc1Cl | 2950 nM | 16000 nM
O=C1/C(=C/c2cccc([N+](=O)[O-])c2)COc2ccc(O)cc21 | 2260 nM | 5000 nM
COC1CCC(N2C(=O)CNc3ncc(-c4ccc(C(C)(C)O)nc4)nc32)CC1 (stereo not given) | 430 nM and 407 nM | 3510 nM and 5380 nM
